These results are taken from patent US9296716B2, “Androgen receptor ligands” (THE PROVOST, FELLOWS, FOUNDATION SCHOLARS, & THE OTHER …, priority 2011, dated 2016).

Entries after “also recorded” stand apart in the source; their conditions may differ.

Type in all cases: cell-based
One assay has as its system PC-3 cells. The assay is described as follows: Cell viability (AlamarBlue), PC-3. As to conditions: 50 μM, 24 hours. The method, then: Cell viability was assessed after 24 hours of incubation with the test compounds initially at three different concentrations to establish their dose-responsiveness, considering 50 μM as the highest concentration (FIG. 10).
For cell viability (end point) assays LNCaP, PC-3 and PWR-1E cells were seeded at 2.5*10^4/ml density in 200 μl volume of a 96-well plate in triplicate and incubated for 24 hours prior testing. Test compounds were included at different concentrations to achieve a final concentration of 0.5% DMSO in each well. Effect of 0.5% DMSO on cell-viability was also evaluated. Cell viability was assessed after 24 hours of treatment using 10% Alamar Blue reagent (Invitrogen) for each well. Cell viability was monitored by the reduction of resazurin, a blue, cell-permeable and non-toxic compound, to resorufin, a red and highly fluorescent product. Viable cells continuously convert resazurin to resorufin, increasing the overall colour and fluorescence of the media surrounding cells. Fluorescence intensity can be quantitatively determined with a fluorescence microplate reader at excitation/emission 544 nm/590 nm (Spectramax Gemini). For hormone dependent cell proliferation assays in androgen deprived LNCaP cells, cells were seeded at 2*10^4 cells/ml in a 24-well plate in triplicate. […] A control for the vehicle was included to ensure no effect on viability could be detected. […]
A general note: Resazurin is reduced to fluorescent resorufin, in cell work by metabolically active cells.

For the next assay, the system named is LNCaP cells. In words: LNCaP cell proliferation assay (androgen deprived, AlamarBlue). As to conditions: LNCaP, androgen deprived media, no DHT. The method, then:
To determine the optimal DHT concentration and length of treatment required for cell proliferation assays, we tested a range of DHT concentrations in 0.1% DMSO for 5 or 7 days in LNCaP cells cultured in FBS stripped phenol red free media. […] Media and treatments were replaced every second incubation day (FIGS. 12 A and B)
(§1) For cell viability (end point) assays LNCaP, PC-3 and PWR-1E cells were seeded at 2.5*10^4/ml density in 200 μl volume of a 96-well plate in triplicate and incubated for 24 hours prior testing. Test compounds were included at different concentrations to achieve a final concentration of 0.5% DMSO in each well. Effect of 0.5% DMSO on cell-viability was also evaluated. Cell viability was assessed after 24 hours of treatment using 10% Alamar Blue reagent (Invitrogen) for each well. Cell viability was monitored by the reduction of resazurin, a blue, cell-permeable and non-toxic compound, to resorufin, a red and highly fluorescent product. Viable cells continuously convert resazurin to resorufin, increasing the overall colour and fluorescence of the media surrounding cells. Fluorescence intensity can be quantitatively determined with a fluorescence microplate reader at excitation/emission 544 nm/590 nm (Spectramax Gemini). For hormone dependent cell proliferation assays in androgen deprived LNCaP cells, cells were seeded at 2*10^4 cells/ml in a 24-well plate in triplicate. Cells were plated in phenol red free RPMI Glutamax (Invitrogen) supplemented with 10% charcoal-stripped FBS to deplete endogenous steroids 48 hours prior the assay as described in previous reports. […] Cells were treated with different concentrations of test compounds with or without 0.1 nM DHT to achieve a final concentration of 0.1% DMSO in each well. A control for the vehicle was included to ensure no effect on viability could be detected. Media and treatments were replaced every second day, after washing the cells twice with 1×PBS. Supernatants were collected after five days for secreted PSA levels evaluation and cell proliferation was assessed for the same plate using Alamar Blue in order to exclude non-specific effects due to toxicity issues.

Assay [1] deals with PSA expression in LNCaP cells. The assay is described as follows: PSA ELISA, secreted PSA in LNCaP cells. As to conditions: bell-shaped effect. The method, then: (§2) To investigate compounds effect on PSA expression, a common biomarker for prostate cancer, we utilized a human PSA ELISA assay.
as §1
Secreted levels of prostate specific antigen were evaluated with a commercially available kit (Quantikine Human Kallikrein 3/PSA Immunoassay, R&D systems). The assay was performed following manufacturer's guidelines. In brief, 50 μl of standards and cell culture samples were added to pre-coated wells containing assay diluent RD1W (R&D systems) and incubated for two hours at room temperature. […] Wells were washed and treated with colored substrate (Tetramethylbenzidine) for an additional 30 minutes, after which 50 μl of stop solution (Sulphuric Acid 2N) was added per well and absorbance (450 nm with correction at 540 nm) was read with a plate reader within 30 minutes (Versamax).

The test system of assay [2] is PSA expression in 22Rv1 cells. In words: PSA ELISA, secreted PSA in 22Rv1 cells. As to conditions: 22Rv1. On the procedure: as §2
(§3) We repeated the same experiment in 22Rv1 cell line.
Secreted levels of prostate specific antigen were evaluated with a commercially available kit (Quantikine Human Kallikrein 3/PSA Immunoassay, R&D systems). The assay was performed following manufacturer's guidelines. In brief, 50 μl of standards and cell culture samples were added to pre-coated wells containing assay diluent RD1W (R&D systems) and incubated for two hours at room temperature. Unbound material was washed several times and 200 μl of Horseradish Peroxidase (HRP) labeled PSA conjugate antibody was added to each well and further incubated for two hours at room temperature. Wells were washed and treated with colored substrate (Tetramethylbenzidine) for an additional 30 minutes, after which 50 μl of stop solution (Sulphuric Acid 2N) was added per well and absorbance (450 nm with correction at 540 nm) was read with a plate reader within 30 minutes (Versamax).

The subject of the next assay is 22Rv1 cells. The assay is described as follows: 22Rv1 cell proliferation assay. The method, then:
Thus, inhibition on cell proliferation by the compounds could not be evaluated (FIG. 14)
as §3
For cell viability (end point) assays LNCaP, PC-3 and PWR-1E cells were seeded at 2.5*10^4/ml density in 200 μl volume of a 96-well plate in triplicate and incubated for 24 hours prior testing. Test compounds were included at different concentrations to achieve a final concentration of 0.5% DMSO in each well. Effect of 0.5% DMSO on cell-viability was also evaluated. Cell viability was assessed after 24 hours of treatment using 10% Alamar Blue reagent (Invitrogen) for each well. Cell viability was monitored by the reduction of resazurin, a blue, cell-permeable and non-toxic compound, to resorufin, a red and highly fluorescent product. Viable cells continuously convert resazurin to resorufin, increasing the overall colour and fluorescence of the media surrounding cells. Fluorescence intensity can be quantitatively determined with a fluorescence microplate reader at excitation/emission 544 nm/590 nm (Spectramax Gemini). […] A control for the vehicle was included to ensure no effect on viability could be detected. […] Supernatants were collected after five days for secreted PSA levels evaluation and cell proliferation was assessed for the same plate using Alamar Blue in order to exclude non-specific effects due to toxicity issues.

With `CC(=O)O[C@]1(C(C)=O)CC[C@H]2[C@@H]3C=C(Cl)C4=CC(=O)[C@@H]5C[C@@H]5[C@]4(C)[C@H]3CC[C@@]21C` [CPA, Cyproterone Acetate, reference compound], the “effect on cell viability” value in the assay with PC-3 cells is given as “minor effect”. Further, the “cell proliferation in absence of DHT / androgens” value in the assay with LNCaP cells is listed as “induces cell proliferation; also recorded: stimulates cell proliferation”. Besides, the “maximal stimulatory concentration for PSA secretion” value in assay [1] was 1 µM. Further, in assay [2], the “PSA expression in absence of androgens” value was “remarkable increase”. Also, in the assay with 22Rv1 cells, the “cell proliferation in absence of androgens” value is recorded as “couldn't see a remarkable increase”.
